Measurements reported in US6355799B1, “Substituted benzene compounds, process for their preparation, and herbicidal and defoliant compositions containing them” (ISK Americas Incorporated, priority 1997, dated 2002).

Assays:
Format in all cases: in vivo
[1] = tested on: field corn (Zea mays L., var. Dekalb 535, CORN); experiment: Post-emerge test, crop safety; settings: post-emerge, 14 days after application, rating scale 0-100
In short: (§1)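 Compounds in acetone were track-sprayed at 15-1000 g ai/ha (187 l/ha) on sandy loam pots: pre-emerge one day after seeding, post-emerge at 2-3 leaf stage with 0.25% v/v non-ionic surfactant. Phytotoxicity was rated 14 days later on a 0 (no damage) to 100 (complete death) scale.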

[2] = tested on: upland rice (Oryza sp., var. Tebonnet, RICE); experiment: Post-emerge test, crop safety; settings: post-emerge, 14 days after application, rating scale 0-100
In short: as §1

[3] = tested on: ivyleaf morningglory (Ipomoea hederacea, IPOHE); experiment: Post-emerge test, greenhouse herbicide activity screening; settings: post-emerge, 14 days after application, rating scale 0-100
In short: (§2)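 Sandy loam pots; pre-emerge: sown 1 d pre-spray, surface-watered after, then bottom-watered. Post-emerge: sown 8–21 d before, 2–3 leaf stage, + 0.25% v/v NIS, bottom-watered. Acetone, 187 l/ha track spray, 15–1000 g ai/ha. 0–100 injury score, day 14.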

[4] = tested on: green foxtail (Setaria viridis, SETVI); experiment: as above; settings: post-emerge, 14 days after application, rating scale 0-100
In short: as §2

[5] = tested on: redroot pigweed (Amaranthus retroflexus, AMARE); experiment: as above; settings: post-emerge, 14 days after application
In short: as §2

[6] = tested on: velvetleaf (Abutilon theophrasti, ABUTH); experiment: as above; settings: post-emerge, 14 days after application, rating scale 0-100
In short: as §2

[7] = tested on: lambsquarters (Chenopodium album, CHEAL); experiment: as above; settings: post-emerge, 14 days after application, rating scale 0-100
In short: as §2

[8] = tested on: barnyardgrass (Echinochloa crus-galli, ECHCG); experiment: as above; settings: post-emerge, 14 days after application, rating scale 0-100
In short: as §2

[9] = tested on: johnsongrass (Sorghum halepense, SORHA); experiment: as above; settings: post-emerge, 14 days after application, rating scale 0-100
In short: as §2

[10] = tested on: large crabgrass (Digitaria sanguinalis, DIGSA); experiment: as above; settings: post-emerge, 14 days after application, rating scale 0-100
In short: as §2

[11] = tested on: sicklepod (Cassia obtusifolia, CASOB); experiment: as above; settings: post-emerge, 14 days after application, rating scale 0-100
In short: as §2

[12] = tested on: ivyleaf morningglory (Ipomoea hederacea, IPOHE); experiment: Pre-emerge test, greenhouse herbicide activity screening; settings: pre-emerge, 14 days after application, rating scale 0-100
In short: as §1

[13] = tested on: green foxtail (Setaria viridis, SETVI); experiment: as above; settings: pre-emerge, 14 days after application, rating scale 0-100
In short: as §1

[14] = tested on: velvetleaf (Abutilon theophrasti, ABUTH); experiment: as above; settings: pre-emerge, 14 days after application, rating scale 0-100
In short: as §1

[15] = tested on: lambsquarters (Chenopodium album, CHEAL); experiment: as above; settings: pre-emerge, 14 days after application, rating scale 0-100
In short: as §1

[16] = tested on: barnyardgrass (Echinochloa crus-galli, ECHCG); experiment: as above; settings: pre-emerge, 14 days after application, rating scale 0-100
In short: as §1

[17] = tested on: johnsongrass (Sorghum halepense, SORHA); experiment: as above; settings: pre-emerge, 14 days after application, rating scale 0-100
In short: as §1

[18] = tested on: large crabgrass (Digitaria sanguinalis, DIGSA); experiment: as above; settings: pre-emerge, 14 days after application, rating scale 0-100
In short: as §1

[19] = tested on: sicklepod (Cassia obtusifolia, CASOB); experiment: as above; settings: pre-emerge, 14 days after application, rating scale 0-100
In short: as §1

[20] = tested on: field corn (Zea mays L., var. Dekalb 535, CORN); experiment: Pre-emerge test, crop safety; settings: pre-emerge, 14 days after application, rating scale 0-100
In short: (§3)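 Compounds in acetone were track-sprayed at 187 l/ha, 15–1000 g ai/ha, onto sandy loam pots. Pre-emerge seeds were sown one day before spraying, with surface watering afterwards. Post-emerge plants were at the 2–3 leaf stage and sprayed with 0.25% v/v non-ionic surfactant. Injury was rated 0–100 at 14 days.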

[21] = tested on: upland rice (Oryza sp., var. Tebonnet, RICE); experiment: Pre-emerge test, crop safety; settings: pre-emerge, 14 days after application, rating scale 0-100
In short: as §3

[22] = tested on: redroot pigweed (Amaranthus retroflexus, AMARE); experiment: Pre-emerge test, greenhouse herbicide activity screening; settings: pre-emerge, 14 days after application, rating scale 0-100
In short: as §3

COc1c(Cl)cc(F)c(-n2c(=O)cc(C(F)(F)F)n(C)c2=O)c1NN=C1CCc2ccccc2C1 [15-18]
Post-emerge Herbicidal Activity CORN (crop damage rating) ([1]; 63 g ai/ha): 20 | Post-emerge Herbicidal Activity CORN (crop damage rating) ([1]; 250 g ai/ha): 80 | Post-emerge Herbicidal Activity RICE (crop damage rating) ([2]; 63 g ai/ha): 30 | Post-emerge Herbicidal Activity RICE (crop damage rating) ([2]; 250 g ai/ha): 85 | Post-emerge Herbicidal Activity IPOHE (phytotoxicity rating) ([3]; 63 g ai/ha): 90 | Post-emerge Herbicidal Activity IPOHE (phytotoxicity rating) ([3]; 250 g ai/ha): 100 | Post-emerge Herbicidal Activity SETVI (phytotoxicity rating) ([4]; 63 g ai/ha): 20 | Post-emerge Herbicidal Activity SETVI (phytotoxicity rating) ([4]; 250 g ai/ha): 80 | Post-emerge Herbicidal Activity AMARE (phytotoxicity rating) ([5]; 63 g ai/ha, rating scale 0-100 (0 no damage, 100 complete death)): 100 | Post-emerge Herbicidal Activity AMARE (phytotoxicity rating) ([5]; 250 g ai/ha, rating scale 0-100): 100 | Post-emerge Herbicidal Activity ABUTH (phytotoxicity rating) ([6]; 63 g ai/ha): 100 | Post-emerge Herbicidal Activity ABUTH (phytotoxicity rating) ([6]; 250 g ai/ha): 100 | Post-emerge Herbicidal Activity CHEAL (phytotoxicity rating) ([7]; 63 g ai/ha): 100 | Post-emerge Herbicidal Activity CHEAL (phytotoxicity rating) ([7]; 250 g ai/ha): 100 | Post-emerge Herbicidal Activity ECHCG (phytotoxicity rating) ([8]; 63 g ai/ha): 10 | Post-emerge Herbicidal Activity ECHCG (phytotoxicity rating) ([8]; 250 g ai/ha): 95 | Post-emerge Herbicidal Activity SORHA (phytotoxicity rating) ([9]; 63 g ai/ha): 0 | Post-emerge Herbicidal Activity SORHA (phytotoxicity rating) ([9]; 250 g ai/ha): 99 | Post-emerge Herbicidal Activity DIGSA (phytotoxicity rating) ([10]; 63 g ai/ha): 10 | Post-emerge Herbicidal Activity DIGSA (phytotoxicity rating) ([10]; 250 g ai/ha): 100 | Post-emerge Herbicidal Activity CASOB (phytotoxicity rating) ([11]; 63 g ai/ha): 40 | Post-emerge Herbicidal Activity CASOB (phytotoxicity rating) ([11]; 250 g ai/ha): 100 | phytotoxicity rating IPOHE ([12]; 63 g ai/ha): 90 | phytotoxicity rating IPOHE ([12]; 250 g ai/ha): 100 | phytotoxicity rating SETVI ([13]; 63 g ai/ha): 95 | phytotoxicity rating SETVI ([13]; 250 g ai/ha): 100 | phytotoxicity rating ABUTH ([14]; 63 g ai/ha): 100 | phytotoxicity rating ABUTH ([14]; 250 g ai/ha): 100 | phytotoxicity rating CHEAL ([15]; 63 g ai/ha): 100 | phytotoxicity rating CHEAL ([15]; 250 g ai/ha): 100 | phytotoxicity rating ECHCG ([16]; 63 g ai/ha): 75 | phytotoxicity rating ECHCG ([16]; 250 g ai/ha): 100 | phytotoxicity rating SORHA ([17]; 63 g ai/ha): 75 | phytotoxicity rating SORHA ([17]; 250 g ai/ha): 100 | phytotoxicity rating DIGSA ([18]; 63 g ai/ha): 100 | phytotoxicity rating DIGSA ([18]; 250 g ai/ha): 100 | phytotoxicity rating CASOB ([19]; 63 g ai/ha): 100 | phytotoxicity rating CASOB ([19]; 250 g ai/ha): 100 | phytotoxicity rating CORN ([20]; 63 g ai/ha): 80 | phytotoxicity rating CORN ([20]; 250 g ai/ha): 95 | phytotoxicity rating RICE ([21]; 63 g ai/ha): 90 | phytotoxicity rating RICE ([21]; 250 g ai/ha): 99 | phytotoxicity rating AMARE ([22]; 63 g ai/ha): 100 | phytotoxicity rating AMARE ([22]; 250 g ai/ha): 100
